Laboratory results published in patent publication US20200216906A1, “METHODS AND COMPOSITIONS RELATING TO THE DIAGNOSIS AND TREATMENT OF CANCER” (PRESIDENT AND FELLOWS OF HARVARD COLLEGE, priority 2015, published 2020).
Counter-ions that a name gives are not always drawn.

Tests used:
[1] = test system: Panc02.13-YAPS6A xenografts; assay: Mouse xenograft, Panc02.13-YAPS6A; format: in vivo; conditions: 50 mg/Kg, alternate days for two weeks
Experimental: In mouse xenograft studies, two human pancreatic cancer cell lines (Miapac2 and Panc02.13) expressing GFP or YAPS6A were injected into athymic mice. […] When the tumors were ˜200 mm^3 (as measured using a caliper), mice were randomized into treatment and control groups. The former received i.p. saline injections on alternate days for two weeks, and the latter received gemcitabine (20 mg/kg in Miapaca2-YAPS6A and 50 mg/Kg in Panc02.13-YAPS6A cohorts).
Tumorigenicity in Nude Mice. All in vivo experiments were performed using 6-week-old to 8-week-old athymic nude mice. Mice were maintained in laminar flow rooms with constant temperature and humidity. […] Cells (2×10^6 in suspension) were injected on day 0, and tumor growth was followed every 2 to 3 days by tumor diameter measurements using vernier calipers. Tumor volumes (V) were calculated using the formula: V=AB2/2 (A, axial diameter; B, rotational diameter). When the outgrowths were • 200 mm^3, mice were divided at random into two groups (control and treated, n=3-8). The treated group received gemcitabine injection or saline control on alternate days (MWF) for 2 weeks.

[2] = test system: Panc02.13 cells expressing YAPS6A; assay: Gemcitabine and dFdU efflux by LC-MS/MS, Panc02.13 YAPS6A vs GFP; format: in vitro ADME, human; conditions: less efflux in YAPS6A (Hippo-OFF), p<0.05
Excerpt: It was considered whether the Hippo pathway might affect the efflux of gemcitabine and/or its metabolites. To assess directly gemcitabine efflux in conditioned media of pancreatic cancer cells both radiolabeled gemcitabine and LC-MS/MS-based methods were used. Panc02.13 cells grown in highly crowded conditions (Hippo-ON) pumped out 2-3-fold more radiolabeled gemcitabine (counts per μg protein) compared with cells grown in less crowded conditions (Hippo-OFF) (FIG. 22A). Another pathway of inactivation and export is the enzymatic conversion of gemcitabine to a uracil derivative (2′,2′-difluorodeoxyuridine, dFdU) by deamination catalyzed by cytidine deaminase (CDA)(Veltkamp et al., 2008). The efflux of gemcitabine and its deaminated metabolite, dFdU was measured by LC-MS/MS (24) in Panc02.13 cells expressing YAPS6A or vector control after gemcitabine treatment (FIG. 22B).

[3] = Stability of gemcitabine in culture and conditioned media; format: in vitro ADME
Excerpt: Drug availability mediated by transport or binding or export from the cell is known to be a major determinant of the sensitivity to chemotherapy (O'CONNOR, 2007). […] Furthermore, conditioned media collected from Panc02.13 cells exposed to gemcitabine after 5 days retained 96.7% activity (FIGS. 35A-[…]).

[4] = test system: Miapaca2-YAPS6A xenografts; assay: Mouse xenograft, Miapaca2-YAPS6A; format: in vivo
Experimental: (§1) To assess the gemcitabine response to Hippo pathway inactivation in tumors a mouse xenograft model of pancreatic carcinoma cells and patient-derived xenograft (PDX) models from a variety of solid tumors including human cancers from non-small cell lung, esophagus, breast, mesothelium, ovary, colon, head and neck, sarcoma, and cholangiocarcinoma were used (FIG. 30). In mouse xenograft studies, two human pancreatic cancer cell lines (Miapac2 and Panc02.13) expressing GFP or YAPS6A were injected into athymic mice. Both parental or GFP expressing cells grew rapidly, producing palpable tumors in 5-10 days. When the tumors were ˜200 mm^3 (as measured using a caliper), mice were randomized into treatment and control groups. The […] received i.p. saline injections on alternate days for two weeks, and the latter received gemcitabine (20 mg/kg in Miapaca2-YAPS6A and 50 mg/Kg in Panc02.13-YAPS6A cohorts).
Tumorigenicity in Nude Mice. All in vivo experiments were performed using 6-week-old to 8-week-old athymic nude mice. Mice were maintained in laminar flow rooms with constant temperature and humidity. Miapaca2 or Panc02.13 cells were inoculated subcutaneously (s.c.) into each flank of the mice. Cells (2×10^6 in suspension) were injected on day 0, and tumor growth was followed every 2 to 3 days by tumor diameter measurements using vernier calipers. Tumor volumes (V) were calculated using the formula: V=AB2/2 (A, axial diameter; B, rotational diameter). When the outgrowths were • 200 mm^3, mice were divided at random into two groups (control and treated, n=3-8). The treated group received gemcitabine injection or saline control on alternate days (MWF) for 2 weeks.
Intra-tumor gemcitabine measurements.

[5] = test system: H2052 mesothelioma cells (LATS2 deletion); assay: Cell growth of H2052 mesothelioma cells; format: cell-based
[6] = test system: cancer cell lines harboring Hippo pathway genetic alterations; assay: 3D spheroid growth assay, cell lines with Hippo pathway alterations; format: cell-based; conditions: cell lines from five diverse cancer types
Excerpt: Genetic defects that inhibit the Hippo pathway can induce tumors in model organisms. Such mutations occur in a broad range of human carcinomas, including lung, mesothelioma, colorectal, ovarian and liver cancers (Harvey et al., 2013) (Table S3). Mutations in NF2 and LATS2 are found in ˜30% of mesotheliomas and mutations in STK11 are found in 18% of lung cancers (Table S3). Previous studies have shown that aberrations in LATS2 and NF2 inactivate the Hippo pathway and overcome crowding-mediated YAP inhibition (Murakami et al., 2011). Despite the oncogenic effect of Hippo pathway mutations, the above studies would predict that the same inactivating mutations in the Hippo pathway genes (NF2, LATS2, STK11) could have an important effect, which can be exploited in chemotherapy: they might be hypersensitive to gemcitabine even in highly crowded conditions and increase the effectiveness of treatment. […] Furthermore, previous studies have shown that mutations in STK11 (LKB1) in lung cancer cell lines confer sensitivity to gemcitabine while ectopic expression of STK11 causes resistance (Xia et al., 2014; Yang, 2014). STK11 has been identified as an upstream kinase that negatively regulates YAP activity (Mohseni et al., 2014). […] Genetic aberrations in the Hippo pathway can be predictive biomarkers for response to gemcitabine.

[7] = test system: Miapaca2-GFP xenografts; assay: Mouse xenograft, Miapaca2-GFP; format: in vivo; conditions: i.p., alternate days for two weeks
Experimental: as §1
Tumorigenicity in Nude Mice. All in vivo experiments were performed using 6-week-old to 8-week-old athymic nude mice. Mice were maintained in laminar flow rooms with constant temperature and humidity. Miapaca2 or Panc02.13 cells were inoculated subcutaneously (s.c.) into each flank of the mice. […] Tumor volumes (V) were calculated using the formula: V=AB2/2 (A, axial diameter; B, rotational diameter). […]

## Nc1ccn([C@@H]2O[C@H](CO)[C@@H](O)C2(F)F)c(=O)n1 [Gemcitabine, Gemcitabine hydrochloride]
[1]
  Tumor volume: significant regression
[2]
  Gemcitabine effluxed, YAPS6A vs GFP expressing cells: 10 fold
[3]; conditioned media from Panc02.13 cells after 5 days
  Activity retained in conditioned media: 96.7%
[3]; culture media
  Lability in culture media: not labile
[4]; 20 mg/kg, alternate days for two weeks
  Growth of xenografts: significantly slowed
[4]; cleaved caspase 7 and phosphor-H2aX
  Induction in apoptosis vs parental controls: > 2 fold
[5]
  Sensitivity of mesothelioma cells harboring LATS2 deletion: sensitive
[6]
  EC50: < 1 µM
[7]
  Growth of xenografts: no affect
